Measured values: patent publication US20210038559A1, “CANNABINOIDS AND DERIVATIVES FOR PROMOTING IMMUNOGENICITY OF TUMOR AND INFECTED CELLS” (priority 2018, published 2021)
Read-outs that look alike come from different tables or passages of the source.

Legend:
[1] = test system: MHC-I expression on COLO 205 cells; experiment: Phytocannabinoid MHC-I induction on COLO 205 cells, 0-100 μM, 48 hours; conditions: for MHC-I expression induction: COLO 205, endogenous cannabinoids; for Fold Induction: MHC-I expression on COLO 205 cells, relative to control cells treated only with buffer
Description: FIG. 4. Cell surface MHC class I expression was measured by flow cytometry (MFI).
Phytocannabinoids were tested for MHC-I-inducing activity on COLO 205 cells. Each cannabinoid was tested at a concentration range of 0-100 μM. […] “ND” indicates not determined.

[2] = test system: MHC class I expression on COLO 205 cells; experiment: MHC class I expression on COLO 205 cells, 24 hours, flow cytometry (W6/32); conditions: for fold induction at 10 µM / fold induction at 20 µM / fold induction at 30 µM / fold induction at 40 µM: Homo sapiens, COLO 205
Description: FIG. 2A-2F. […] Cells were treated for 24 hours and cell surface MHC class I expression was measured by flow cytometry.
Cannabigerol was also tested for its capacity to induce MHC class I expression in a human colorectal carcinoma cell line, COLO 205. The cells were treated with either 25 μM or 50 μM cannabigerol for 24 hours. Fluorophor (Alexa Fluor 488)-conjugated W6/32 antibody (Thermo Fisher) was used in a flow cytometry assay to quantitate MHC class I expression. […] Cannabigerol is only one of many cannabinoid-like molecules with potential biopharmaceutical activity. […] COLO 205 cells were treated with up to 40 μM of the cannabinoids 1-5 presented in Tables 1 and 2 and evaluated for cell surface MHC class I expression as described above for cannabigerol.

[3] = test system: MHC-I expression, COLO 205 cells; experiment: Time course of MHC-I expression in CBD-treated COLO 205 cells; assay type: cell-based, human; conditions: COLO 205, 15 μM
Description: FIG. 5. MHC-I expression (MFI) is induced over time in CBD-treated COLO 205 cells.
To determine whether changes in gene expression play a role in cannabinoid-induced MHC-I expression, COLO 205 cells were incubated with 15 μM CBD and cells were harvested at 6, 12, 24, and 48 hours for determination of MHC-I expression by flow cytometry.

[4] = test system: MHC class I expression, mouse Lewis lung carcinoma cell line A9; experiment: MHC class I expression in mouse A9 Lewis lung carcinoma cells, 24 hours, flow cytometry; assay type: cell-based; conditions: 100 ng/ml, positive control
Description: FIG. 1A-1B. Cannabigerol stimulates MHC class I expression in the mouse A9 Lewis lung carcinoma (FIG. 1A) and the human COLO 205 colorectal carcinoma (FIG. 1B) cell lines. Cells were treated for 24 hours with 21.2 μM (A) or 25 and 50 μM (FIG. 1B) cannabigerol.
Cannabigerol, a representative cannabinoid, was tested for its ability to also stimulate MHC class I expression in mammalian cancer cell lines. The mouse Lewis lung carcinoma cell line, A9, was treated with 21 μM of cannabigerol for 24 hours prior to flow cytometric analysis of cell surface expression of MHC class I expression levels using the MHC class I antibody W6/32 (Thermo Fisher). Control conditions included the vehicle, dimethyl sulfoxide (DMSO, 1%) alone, and 100 ng/ml of trichostatin A (TSA), a histone deacetylase inhibitor and known inducer of MHC class I expression in mammalian cells. […] The positive control, TSA, stimulated expression by 2.4-fold.

[5] = test system: MHC-I expression, human cancer cell lines; experiment: MHC-I expression restoration by IFN-γ in human cancer cell lines; assay type: cell-based; conditions: 48 hours
Description: (§1) FIG. 3A-3B. […] MHC-I downregulation is reversible in the majority of human and mouse cancer cell lines.
(§2) MHC-I expression may be restored in cancers, such as those with intact antigen processing machinery (APM) genes. Various human and mouse cancer cell lines were treated with dose titrations of recombinant human and mouse IFN-γ, respectively. The cells were incubated with IFN-γ for 48 hours in a humidified chamber at 37° C., stained with fluorescent haplotype-appropriate MHC-I antibody, then signal was determined by flow cytometry. Cancers represented in this experiment include brain (SK-N-MC), breast (4T1, EMT6), colorectal (COLO 205, SNU-C1, DLD-1, LS123, LS411N, LoVo, CT26, MC38), kidney (Renca), lung (NCI-H146, LLC), lymphoid (A20), and skin (A431, SK-MEL-2, B16F10). IFN-γ induced MHC-I expression in a dose-dependent manner in 6/10 (60%) human and 6/9 mouse (67%) cell lines. […] The results are found in FIGS. 3A-3B.

[6] = test system: MHC-I expression, mouse cancer cell lines; experiment: MHC-I expression restoration by IFN-γ in mouse cancer cell lines; assay type: cell-based; conditions: 48 hours
Description: as §1, §2

[7] = COLO 205, 10 μM, W6/32 staining
[8] = COLO 205, 20 μM, W6/32 staining
[9] = COLO 205, 30 μM, W6/32 staining
[10] = COLO 205, 40 μM, W6/32 staining
[11] = induction of MHC-I expression on COLO 205 cells, 0-100 μM, 48 hours

CCCCC/C=C\C/C=C\C/C=C\C/C=C\CCCC(=O)NCCO [AEA, N-arachidonoylethanolamine, reference compound]
MHC-I expression induction [1]: do not induce MHC-I expression

C=C(C)[C@@H]1CCC(C)=CC1c1c(O)cc(CCCCC)cc1O (stereo partly drawn) [Example 2, 2-[1R-3-methyl-6R-(1-methylethenyl)-2-cyclohexen-1-yl]-5-pentyl-1,3-benzenediol]
MFI [2, 7]: 141
MFI [2, 8]: 205
MFI [2, 9]: 199
MFI [2, 10]: 82
fold induction at 10 µM [2]: 1.17
fold induction at 20 µM [2]: 1.69
fold induction at 30 µM [2]: 1.64
fold induction at 40 µM [2]: 0.68
EC50 ([1]; Homo sapiens, COLO 205, 48 h): 10 µM
Fold Induction ([1]; 0-100 μM, 48 hours): 2.8 Fold
MHC-I expression ([3]; 48 hr): robust induction
MHC-I expression ([3]; by 24 hours): slight increase

CCCCC/C=C\C/C=C\C/C=C\C/C=C\CCCC(=O)OC(CO)CO [Example 2-AG, 2-Arachidonoylglycerol, reference compound]
MHC-I expression induction [1]: do not induce MHC-I expression

CCCCCc1cc(O)c2c(c1)OC(C)(CCC=C(C)C)C=C2 (stereo not shown) [Example 3, 2-methyl-2-(4-methyl-3-penten-1-yl)-7-pentyl-2H-1-benzopyran-5-ol]
MFI [2, 7]: 120
MFI [2, 8]: 148
MFI [2, 9]: 177
MFI [2, 10]: 280
fold induction at 10 µM [2]: 0.99
fold induction at 20 µM [2]: 1.22
fold induction at 30 µM [2]: 1.46
fold induction at 40 µM [2]: 2.31
EC50 ([1]; Homo sapiens, COLO 205, 48 h): 20 µM
Fold Induction ([1]; 0-100 μM, 48 hours): 1.6 Fold

CCCCCc1cc(O)c2c(c1)OC(C)(C)c1ccc(C)cc1-2 [Example 4, 6,6,9-trimethyl-3-pentyl-6H-dibenzo[b,d]pyran-1-ol]
MFI [2, 7]: 120
MFI [2, 8]: 160
MFI [2, 9]: 253
MFI [2, 10]: 253
fold induction at 10 µM [2]: 0.99
fold induction at 20 µM [2]: 1.32
fold induction at 30 µM [2]: 2.09
fold induction at 40 µM [2]: 2.09
EC50 ([1]; Homo sapiens, COLO 205, 48 h): 25 µM
Fold Induction ([1]; 0-100 μM, 48 hours): 1.8 Fold

CCCc1cc(O)c2c(c1)OC(C)(C)[C@@H]1CCC(C)=C[C@@H]21 [Example 5, 6aR,7,8,10aR-tetrahydro-6,6,9-trimethyl-3-propyl-6H-dibenzo[b,d]pyran-1-ol]
MFI [2, 7]: 152
MFI [2, 8]: 192
MFI [2, 9]: 235
MFI [2, 10]: 242
fold induction at 10 µM [2]: 1.26
fold induction at 20 µM [2]: 1.59
fold induction at 30 µM [2]: 1.94
fold induction at 40 µM [2]: 2
EC50 ([1]; Homo sapiens, COLO 205, 48 h): 15 µM
Fold Induction ([1]; 0-100 μM, 48 hours): 3.0 Fold

CCCc1cc(O)c2c(c1)OC(C)(CCC=C(C)C)C=C2 (stereo not shown) [Example 381, 2-methyl-2-(4-methylpent-3-enyl)-7-propylchromen-5-ol]
EC50 ([1]; Homo sapiens, COLO 205, 48 h): 32 µM
Fold Induction ([1]; 0-100 μM, 48 hours): 3.3 Fold

CCCCCc1cc2c3c(c1)OC(C)(C)C1CCC(C)(CC31)O2 (stereo not drawn) [Example 382, (6aα,9β,10aα)-6a,7,8,9,10,10a-hexahydro-6,6,9-trimethyl-3-pentyl-1,9-epoxy-6H-dibenzo[b,d]pyran]
Fold Induction ([1]; 0-100 μM, 48 hours): 1.3 Fold

CCCCCc1cc(O)c2c(c1)OC(C)(C)[C@@H]1CC=C(C)C[C@@H]21 [Example 383, 6aR,7,10,10aR-tetrahydro-6,6,9-trimethyl-3-pentyl-6H-dibenzo[b,d]pyran-1-ol]
Fold Induction ([1]; 0-100 μM, 48 hours): 4.1 Fold
EC50 [1, 11]: 27 µM

CCCCCc1cc(O)c2c(c1)OC(C)(C)[C@@H]1CCC(C)=C[C@@H]21 [Example 384, 6aR,7,8,10aR-tetrahydro-6,6,9-trimethyl-3-pentyl-6H-dibenzo[b,d]pyran-1-ol]
Fold Induction ([1]; 0-100 μM, 48 hours): 6.1 Fold
EC50 [1, 11]: 30 µM

CCCc1cc(O)c2c(c1)OC(C)(C)c1ccc(C)cc1-2 [Example 385, 6,6,9-trimethyl-3-propyl-6H-dibenzo[b,d]pyran-1-ol]
EC50 ([1]; Homo sapiens, COLO 205, 48 h): 20 µM
Fold Induction ([1]; 0-100 μM, 48 hours): 3.9 Fold

C=C(C)[C@@H]1CCC(C)=C[C@H]1c1c(O)cc(CCC)cc1O [Example 386, 2-[(1R,6R)-3-methyl-6-(1-methylethenyl)-2-cyclohexen-1-yl]-5-propyl-1,3-benzenediol]
EC50 ([1]; Homo sapiens, COLO 205, 48 h): 19 µM
Fold Induction ([1]; 0-100 μM, 48 hours): 5.5 Fold

CCCCCc1cc(OC)c2c(c1)OC(C)(C)c1ccc(C)cc1-2 [Example 387, 1-methoxy-6,6,9-trimethyl-3-pentyl-6H-dibenzo[b,d]pyran]
EC50 ([1]; Homo sapiens, COLO 205, 48 h): 30 µM
Fold Induction ([1]; 0-100 μM, 48 hours): 2.3 Fold

CC(C)=CCC/C(C)=C/Cc1c(O)cc(C)cc1O [Example 388, 2-[(2E)-3,7-dimethyl-2,6-octadien-1-yl]-5-methyl-1,3-benzenediol]
EC50 ([1]; Homo sapiens, COLO 205, 48 h): 36 µM
Fold Induction ([1]; 0-100 μM, 48 hours): 2.7 Fold

CC(C)=CCC/C(C)=C/Cc1c(O)cc(C)c(C(=O)O)c1O [Example 389, 3-[(2E)-3,7-dimethyl-2,6-octadien-1-yl]-2,4-dihydroxy-6-methyl-benzoic acid]
Fold Induction ([1]; 0-100 μM, 48 hours): 2.6 Fold

CCCCCc1cc(O)c2c(c1)OC1(C)CCC3C1C2C3(C)C [Example 390, (1aS,1a^1R,3aR,8bR)-1,1,3a-trimethyl-6-pentyl-1a,1a^1,2,3,3a,8b-hexahydro-1H-4-oxabenzo[f]cyclobuta[cd]inden-8-ol]
EC50 ([1]; Homo sapiens, COLO 205, 48 h): 20 µM
Fold Induction ([1]; 0-100 μM, 48 hours): 4.2 Fold

CC(/C=C/C(=O)NO)=C\[C@@H](C)C(=O)c1ccc(N(C)C)cc1 [TSA, trichostatin A, reference compound]
increase in MHC class I expression [4]: 2.4 fold

C=C(C)[C@@H]1CCC(C)=C[C@H]1c1c(O)cc(CCCCC)cc1O [cannabidiol (CBD)]
EC50 ([1]; read-out: EC50 of MHC-I induction, COLO 205, 48 hours): 10 µM

Interferon-γ: a natural cytokine known to stimulate MHC class I expression in many mammalian cells
MFI ([2]; COLO 205, 0.004 ng/mL): 119
MFI ([2]; COLO 205, 0.012 ng/mL): 193
MFI ([2]; COLO 205, 0.040 ng/mL): 250
MFI ([2]; COLO 205, 0.110 ng/mL): 321
MFI ([2]; COLO 205, 1.000 ng/mL): 483
MFI ([2]; COLO 205, 3.000 ng/mL): 482
increase in MHC class I expression (maximum) ([2]; COLO 205, interferon-γ reference): ≤ 4 fold
cell lines with dose-dependent induction of MHC-I expression [5]: 6/10
cell lines with dose-dependent induction of MHC-I expression [6]: 6/9

B1: Interferon-γ: a natural cytokine known to stimulate MHC class I expression in many mammalian cells (protein, UniProt P01579 24-161, looked up)
Interferon gamma: QDPYVKEAENLKKYFNAGHSDVADNGTLFLGILKNWKEESDRKIMQSQIVSFYFKLFKNFKDDQSIQKSVETIKEDMNVKFFNSNKKKRDDFEKLTNYSVTDLNVQRKAIHELIQVMAELSPAAKTGKRKRSQMLFRG
Fold Induction ([2]; COLO 205, 0.004 ng/mL): 0.98
Fold Induction ([2]; COLO 205, 0.040 ng/mL): 2.07
Fold Induction ([2]; COLO 205, 1.000 ng/mL): 3.99
